One assay relates to Kentucky bluegrass. The experiment in a line: Greenhouse study on Kentucky bluegrass: turfgrass height, clip weight, turfgrass quality (Example 1). The note with it: for Turfgrass quality: visual 0-9 scale, 9 best; for Turfgrass height and clip weight compared to the control (in words): trinexapac-ethyl 250 ppm, PBI-524 or PBI-429 50 ppm, alone or combined. The assay is classed as in vivo. The protocol:
Greenhouse studies were conducted at the Research Farm of Valent BioSciences Corporation (Long Grove, Ill.). Grasses were grown in pots (18 cm in diameter and 18 cm in height) filled with Promix BX (available from Premier Horticulture Inc. Quakertown, Pa.). Grass was irrigated daily by an overhead irrigation system. The irrigation system was set up with multiple Tornado Mist Spray Heads (10 GPH at 40 PSI-Wetted diameter, NDS/Raindrip, Woodland Hills, Calif.). Spray heads were 1-meter apart from each other and 75 cm above grass canopy. Grass was cut with a scissor at 2.5 cm height and fertilizer (1 g/L all purpose fertilizer 20-20-20, available from The Scotts Company, Marysville, Ohio) was applied once per week.
(§1) Chemical solutions were prepared with distilled water. Tween 20 (0.05% v/v) was used as the surfactant when necessary. Trinexapac-ethyl (commercial product Primo Maxx, 11.3% active ingredient) was purchased from Syngenta Crop Protection Inc. (Greensboro, N.C.). ABA analogs, 8′ acetylene-ABA, acid (PBI-524), 8′ acetylene-ABA, ester (PBI-429), 8′ cyclopropane ester (PBI-696), or Tetralone, first carbon tail acetylene, ester (PBI-702), were obtained from Plant Biotechnology Institute, National Research Council of Canada (Saskatoon, Saskatchewan, Canada).
(§2) Chemical solutions were foliar applied to the turfgrass canopy at the rate of 4-gallons/1000 square foot (or 0.163 L/m^−2) immediately after finishing the preparation of solutions. After treatment, turfgrasses were arranged in a randomized complete block experimental design. Turfgrass quality, turfgrass height or clip fresh weight was measured on assigned dates. Turfgrass quality was visually rated on a 0-9 scale based on the color, uniformity, and density of the grass with 0 as the worst and 9 as the best. Turfgrass height was measured as the distance between canopy surface and soil. Clippings were collected form each plot; all plots were cut to a uniform height.
(§3) All experiments were randomized complete block experimental design. Data were analyzed by analysis of variance. Duncan's new multiple range tests at α=0.05 were used for mean separations.
Kentucky bluegrass sod was purchased from Deak sod farms, Inc. (Union Grove, Wis.). Grass was grown in the greenhouse for 94 days for establishment. Turfgrass was treated with one time foliar application of 50 ppm PBI-524, PBI-429, PBI-696 or PBI-702 alone or in combination with 250 ppm trinexapac-ethyl. The turfgrass was cut every 7 days. Turfgrass quality, turfgrass height, and clip weight were measured on days 7 and 35 after treatment.

Assay [1] concerns creeping bentgrass. Briefly: Golf course green field study on creeping bentgrass with PBI-702: turfgrass height, soil moisture, turf quality (Example 3). The class given is in vivo, Penncross creeping bentgrass. The note with it: for Soil moisture / Turfgrass height / Turf quality: 25 ppm trinexapac-ethyl alone; for Turf quality: visual 0-9 scale, 9 best. The protocol:
(§4) Field studies were conducted at the nursery green or the practice green at Countryside golf course (Mundelein, Ill.). Both greens were sand based and growing Penncross creeping bentgrass. Grass was managed with typical Illinois golf course management practices.
as §1, §2, §3
Trinexapac-ethyl (25 ppm) or PBI-702 (50 ppm) were one time foliar applied alone or in combination to creeping bentgrass in the golf course green to investigate their effect on turfgrass quality, growth inhibition and soil moisture.

Assay [2] concerns creeping bentgrass. Briefly: Golf course green field study on creeping bentgrass with PBI-696: growth rate, turfgrass quality (Example 4). The assay is classed as in vivo, Penncross creeping bentgrass. The note with it: 4 days after treatment, trinexapac-ethyl (25 ppm) alone. The protocol: as §4
Chemical solutions were prepared with distilled water. Tween 20 (0.05% v/v) was used as the surfactant when necessary. Trinexapac-ethyl (commercial product Primo Maxx, 11.3% active ingredient) was purchased from Syngenta Crop Protection Inc. (Greensboro, N.C.). […]
Chemical solutions were foliar applied to the turfgrass canopy at the rate of 4-gallons/1000 square foot (or 0.163 L/m^−2) immediately after finishing the preparation of solutions. […] Turfgrass quality, turfgrass height or clip fresh weight was measured on assigned dates. […] Turfgrass height was measured as the distance between canopy surface and soil. […]
All experiments were randomized complete block experimental design. Data were analyzed by analysis of variance. […]
Trinexapac-ethyl (25 ppm) and PBI-696 (5 or 50 ppm) were one time foliar applied in combination to creeping bentgrass in the golf course green. Turfgrass quality and growth rate were measured 4 days after treatment.

Where [3] appears, read: 7 days after treatment, 50 ppm ABA analog alone.
Where [4] appears, read: 35 days after treatment, 50 ppm ABA analog alone.
[5] abbreviates: 7 days after treatment, 250 ppm trinexapac-ethyl alone.
Setting [6] is: 35 days after treatment, 250 ppm trinexapac-ethyl alone.

SMILES strings stand for the structures.

Turning to `C#CC1(C)CC(=O)C=C(C)C1(O)/C=C/C(C)=C\C(=O)OC` (stereo not shown) [PBI-429, 8′ acetylene-ABA, ester], in the assay on Kentucky bluegrass (setting [3]), the “Clip Weight” value came out at 0.4 g, the Turfgrass height is 5.8 cm and the Turfgrass quality turned out to be 6.6. The “Turfgrass height and clip weight compared to the control (in words)” value in the assay with Kentucky bluegrass (7 days after treatment) is “reduced turfgrass height and clip weight compared to the control”. Moreover, in the assay with Kentucky bluegrass (setting [4]), the “Clip Weight” value turned out to be 2.3 g; the Turfgrass height worked out at 8.1 cm; the “Turfgrass height and clip weight (in words)” value was “no longer reduced turfgrass height and clip weight”.

Take `CCOC(=O)C1CC(=O)C(=C(O)C2CC2)C(=O)C1` (stereo not shown) [trinexapac-ethyl, reference compound]: the “Clip Weight” value in the assay on Kentucky bluegrass (setting [5]) was 0.5 g; in the assay on Kentucky bluegrass (setting [6]), 1.7 g. Besides, the Turfgrass height in the assay on Kentucky bluegrass (setting [5]) was determined as 6.0 cm; with Kentucky bluegrass (setting [6]) it was 7.2 cm; with creeping bentgrass [1] (4 days after treatment), 7.3 mm; in the assay with creeping bentgrass [1] (7 days after treatment) it was 6.5 mm; with creeping bentgrass [1] (38 days after treatment), 6.0 mm. Moreover, the Turfgrass quality with Kentucky bluegrass (setting [5]) was determined as 6.6; in the assay on creeping bentgrass [2] (visual 0-9 scale, 9 best), 8.0. In the assay with Kentucky bluegrass (7 days after treatment), the “Turfgrass height and clip weight compared to the control (in words)” value is “reduced turfgrass height and clip weight compared to the control”. The Soil moisture came out at 11.2% in the assay with creeping bentgrass [1] (4 days after treatment), 12.7% in the assay with creeping bentgrass [1] (7 days after treatment) and 12.4% in the assay on creeping bentgrass [1] (38 days after treatment). In the assay on creeping bentgrass [1] (4 days after treatment, trinexapac-ethyl 25 ppm, PBI-702 50 ppm, alone or combined), the “Reducing growth or maintaining soil moisture (in words)” value is recorded as “ineffective at reducing growth or maintaining soil moisture”. For the same compound, the Turf quality with creeping bentgrass [1] (7 days after treatment) was 7.3; with creeping bentgrass [1] (38 days after treatment), 7.6. In the assay on creeping bentgrass [1] (7 days after treatment, trinexapac-ethyl 25 ppm, PBI-702 50 ppm, alone or combined), the “Reducing growth (in words)” value is “effective at reducing growth”. The Growth rate with creeping bentgrass [2] is given as 549 mg dry weight m^−2 day^−1.

The values above are taken from patent US20080254993A1, “Use of abscisic acid analogs to enhance growth control” (priority 2007, published 2008).
